Measured values as given in ChEMBL document CHEMBL1201862, “PubChem BioAssay data set” (2004).
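Compound exposure: 48 hours, 5 concentrations, 96-well plates. At the GI50, growth is halved.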 Calls of active or inactive are those of the source. Cut-off read from the data, not from the text of the source: active = GI50 up to about 1.1 µM and inactive = higher.

Key:
Assay in all cases: DTP human tumour cell line panel, 48 h
OVCAR-8 = test system: OVCAR-8
SF-539 = test system: SF-539
A498 = test system: A498
NCI/ADR-RES = test system: NCI/ADR-RES
CCRF-CEM = test system: CCRF-CEM
NCI-H23 = test system: NCI-H23
HCC 2998 = test system: HCC 2998
SN12C = test system: SN12C
TK-10 = test system: TK-10
SNB-19 = test system: SNB-19
MDA-N = test system: MDA-N
MDA-MB-231 = test system: MDA-MB-231
SNB-75 = test system: SNB-75
MCF7 = test system: MCF7
HCT-116 = test system: HCT-116
EKVX = test system: EKVX
DU-145 = test system: DU-145
SR = test system: SR
ACHN = test system: ACHN
M14 = test system: M14

Compound	GI50 (OVCAR-8)	GI50 (SF-539)	GI50 (A498)	GI50 (NCI/ADR-RES)	GI50 (CCRF-CEM)	GI50 (NCI-H23)	GI50 (HCC 2998)	GI50 (SN12C)	GI50 (TK-10)	GI50 (SNB-19)	GI50 (MDA-N)	GI50 (MDA-MB-231)	GI50 (SNB-75)	GI50 (MCF7)	GI50 (HCT-116)	GI50 (EKVX)	GI50 (DU-145)	GI50 (SR)	GI50 (ACHN)	GI50 (M14)
CC[n+]1cnc(N)c2c(-c3ccc(Cl)cc3)cn(-c3ccc(C)cc3)c21	18.5 µM (inactive)	14.6 µM (inactive)	11.4 µM (inactive)	12.9 µM (inactive)	6.89 µM (inactive)	19.1 µM (inactive)	4.33 µM (inactive)	12.3 µM (inactive)	17.6 µM (inactive)	15.5 µM (inactive)	12.5 µM (inactive)	17 µM (inactive)	3.56 µM (inactive)	0.971 µM (active)	9.4 µM (inactive)	14.8 µM (inactive)	17.9 µM (inactive)	4.6 µM (inactive)	12.9 µM (inactive)	1.94 µM (inactive)
Cc1ccccc1OC(C)C(=O)NN1C(=O)CC(=O)N(c2ccc(Cl)cc2)C1=S (stereo not given)	34.1 µM (inactive)	46.1 µM (inactive)	20.7 µM (inactive)	29.4 µM (inactive)	19.3 µM (inactive)	31 µM (inactive)	27.4 µM (inactive)	34.3 µM (inactive)	44 µM (inactive)	61.1 µM (inactive)	32.1 µM (inactive)	26 µM (inactive)	35 µM (inactive)	31.3 µM (inactive)	22.2 µM (inactive)	41.7 µM (inactive)	36.1 µM (inactive)	26 µM (inactive)	33.8 µM (inactive)	44.8 µM (inactive)
